Results reported in patent US20090176888A1, “COMPOSITION COMPRISING PHYTOSPHINGOSINE OR DERIVATIVE THEREOF” (KOREA INSTITUTE OF RADIOLOGICAL & MEDICAL SCIENCES, priority 2003, published 2009).

Tests used:
[1] = system: human lung cancer cells (NCI-H460); test: Apoptosis test (Sub G1, propidium iodide, flow cytometry); type: cell-based; details: 5 μg/ml, culture time of 48 hours, FIG. 2
Procedure: Cancer cells as used in the experiment were human lung cancer cells (NCI-H460, Korean Cell Line Bank), human breast cancer cells (MDA-MB-231, American Type Culture Collection (ATCC)), human uterine cervical cancer cells (HeLa, Korean Cell Line Bank), and blood cancer cells (Jurkat, ATCC). These cancer cells were cultured in RPMI 1640 media containing 10% FBS, penicillin, and streptomycin (GIBCO BRL).
The apoptosis tests were carried out at human lung cancer cells, breast cancer cells, uterine cervical cancer cells, and blood cancer cells as follows:
Phytosphingosine or a derivative thereof was dissolved in DMSO. Samples of the resultant solution of different concentration levels (1, 2, 5, 10, 15, 20 μg/ml) were prepared. According to the following treatment schedule, phytosphingosine treated cancer cells were cultured, washed with PBS (phosphate buffered saline), and fixed with 70% ethanol. The fixed cells were again washed with PBS, suspended in PBS, and 1 mg/ml of RNase was added thereto. Then, DNA was stained with 50 μg/ml of propidium iodide fluorescent dye and the change in the Sub G1 was analyzed by flow cytometry (Becton DICKINSON). The Sub G1, a marker of apoptotic cell death, means DNA distribution lower than that in the G1 phase of cell cycle.
(1-1) In order to determine an anticancer effect of phytosphingosine, 5 ml of 10 μg/ml of phytosphingosine was added to respective dishes containing lung cancer cells, breast cancer cells, uterine cervical cancer cells, and blood cancer cells.
(1-2) In order to examine a correlation of an anticancer effect with the phytosphingosine concentration and post-treatment culture time, each 5 ml of 2, 5, 10, and 15 μg/ml of phytosphingosine was added to respective human uterine cervical cancer cell-containing dishes and human breast cancer cell-containing dishes. In addition, each 5 ml of 5, 10, 15, and 20 μg/ml of phytosphingosine was added to respective human lung cancer cell-containing dishes, and each 5 ml of 1, 5, 10, and 20 μg/ml of phytosphingosine was added to respective human blood cancer cell-containing dishes.
(1-3) An anticancer effect of phytosphingosine derivatives was determined in the same manner as mentioned in (1-1) and (1-2) except using 5 μg/ml of C4PS, C6PS, C8PS, and C12PS.

[2] = system: human uterine cervical cancer cells; test: In vivo animal test, tumor size with radiotherapy; parameters: species or system nude mice; details: for tumor size, compound alone treated group: after 7 days (rapidly increased until 7 days after the treatment); for tumor size, radiation and compound concurrent treated group: as a function of days; for tumor size, concurrent treatment vs radiation or compound alone: with radiation, FIGS. 24 and 25
Procedure: (§1) Nude mice (body weight: about 20 g) were randomized into 4 groups and the femoral region of the nude mice transplanted with human lung cancer cells. Then, tumor volume was allowed to reach a level of […]. One group had untreated cells as a control and a second group had radiation (dose of 20 Gy)-treated cells. A third group was orally administered with 50 mg/kg of an olive oil for one week on a daily basis, followed by radiotherapy (dose of 20 Gy). A fourth group was orally administered with a 50 mg/kg solution of phytosphingosine in an olive oil for one week on a daily basis, followed by radiotherapy (dose of 20 Gy). Tumor volume was measured at intervals of 3 days for 40 days. […] In case of a C8PS alone treated group, the tumor size increased until 10 days after the treatment. […] Meanwhile, tumor growth was suspended at a certain point of time after C8PS alone treatment. It can be seen from this fact that C8PS is useful by itself as an anticancer agent for inhibiting tumor growth.
The animal tests were carried out using nude mice of which the femoral regions were transplanted with human uterine cervical cancer cells in the same manner as the aforementioned animal test using C8PS.

[3] = system: human breast cancer cells; test: Apoptosis test with or without radiation; type: cell-based; details: 5 μg/ml in combination with radiation, FIG. 17
Procedure: (§2) (1) Each 5 ml of 20 μg/ml of phytosphingosine and derivatives thereof were added to human lung cancer cell-containing dishes. Some cells were cultured without radiation and others were cultured with radiation with dose of 4 Gy. This apoptosis test was carried out in the same manner in the Experiment 1. Specimens used in this apoptosis test are as follows:
(§3) Control (Cont), IR, PS, PS+IR, C4PS, C4PS+IR, C6PS, C6PS+IR, C8PS, C8PS+IR, C12PS, C12PS+IR.
(§4) (2) Apoptosis tests for human blood cancer cells, uterine cervical cancer cells, and breast cancer cells were carried out in the same manner as in the above (1) except using 5 μg/ml of phytosphingosine and derivatives thereof.

[4] = system: human uterine cervical cancer cells; test: Apoptosis test with or without radiation; type: cell-based; details: 5 μg/ml in combination with radiation, FIG. 17
Procedure: as §2, §3, §4

human lung cancer cells [5] = test: Colony formation test in combination with radiation; type: cell-based; details: for sensitizer enhancement ratio (SER): in combination with radiation
Procedure: (§5) Colony formation tests were carried out in human lung cancer cells, breast cancer cells, and uterine cervical cancer cells as follows:
(§6) Respective sphingosine, phytosphingosine, C6PS, and C8PS were dissolved ethanol to produce specimens. About 600 cells (for each cancer) were plated in a dish with a diameter of 60 mm and incubated in a CO2 incubator at 37° C. for a day. Then, the cancer cells were treated with the specimens in combination with radiation and were continuously cultured. When suitable colonies were formed, the cancer cells were fixed with a fixing solution (methanol/acetic acid=3:1) and stained with trypan blue. Then, the number of the colonies was counted and the results were evaluated in a comparative manner.

[6] = system: human breast cancer cells; test: as above; type: cell-based; details: FIG. 18
Procedure: as §5, §6

[7] = system: human uterine cervical cancer cells; test: as above; type: cell-based; details: FIG. 18
Procedure: as §5, §6

human lung cancer cells [8] = test: In vivo animal test, tumor volume with radiotherapy (20 Gy); parameters: species or system nude mice
Procedure: as §1

human lung cancer cells [9] = test: DNA fragmentation (agarose gel electrophoresis); type: cell-based; details: 20 μg/ml C8PS with radiation, FIG. 20
Procedure: (§7) Human lung cancer cells were cultured in the same manner as in Experiment 1 and injected with 5 ml of 20 μg/ml of C8PS. Then, the DAPI staining and DNA fragmentation were carried out.
DNA fragmentation was carried out as follows:
C8PS-treated human lung cancer cells were dissolved in a lysis buffer (20 mM Tris/HCl, pH 8.0, 0.1 mM EDTA, 1% SDS and 0.5 mg/ml proteinase K) and treated with a mixture of phenol, chloroform, and isoamylalcohol (phenol/chloroform/isoamylalcohol=25:24:1) to thereby give a chromosomal DNA extract. The chromosomal DNA extract was subjected to 1% agarose gel electrophoresis and the resulting DNA fragments were visualized under an UV light.

human lung cancer cells [10] = test: Apoptosis test with or without radiation (4 Gy); type: cell-based; details: 20 μg/ml, FIG. 13
Procedure: as §2, §3

human lung cancer cells [11] = test: DAPI staining (percentage of apoptotic cells); type: cell-based; details: 20 μg/ml C8PS with radiation
Procedure: as §7
DAPI staining protocol was as follows:
First, a control cell group, a radiation-treated cell group, a C8PS-treated cell group, and a C8PS and radiation concurrent treated cell group were fixed with 4% paraformaldehyde at room temperature for 30 minutes and washed with PBS. 50 ng/ml of a DAPI solution was added to the fixed cell groups and incubated for 30 minutes. Then, the cell groups were again washed with PBS and examined with a fluorescent microscope. Cellular apoptosis is characterized by condensation and fragmentation of cell nuclei. Based on this fact, apoptotic cells were counted in each group. Then, the number of apoptotic cells was divided by the number of total cells to derive the percentage of apoptotic cells in each group.

Row | Compound | apoptotic rate [1] | tumor size, compound alone treated group [2] | tumor size, radiation and compound concurrent treated group [2] | tumor size, concurrent treatment vs radiation or compound alone [2] | enhancement of radiosensitizing effect [3] | enhancement of radiosensitizing effect [4] | sensitizer enhancement ratio (SER) (human lung cancer cells [5]; FIG. 12) | sensitizer enhancement ratio (SER) [6] | sensitizer enhancement ratio (SER) [7] | tumor volume, concurrent treatment vs radiation or C8PS alone (human lung cancer cells [8]; 50 mg/kg oral daily for one week then radiotherapy 20 Gy, FIG. 22) | size of initial tumor, radiation and C8PS concurrent treated group (human lung cancer cells [8]; 50 mg/kg oral daily for one week then radiotherapy 20 Gy, FIG. 23) | tumor size, C8PS alone treated group (human lung cancer cells [8]; after the 10th day after treatment (increased until 10 days), FIG. 23) | chromosomal DNA fragmentation, concurrent treatment vs radiation or C8PS alone (human lung cancer cells [9]) | radiosensitivity (human lung cancer cells [5]; FIG. 12) | increase of radiosensitivity relative to Taxol (human lung cancer cells [5]; at LD50 of human lung cancer cells, FIG. 14B) | increase of apoptotic rate, concurrent treatment vs radiation alone (human lung cancer cells [5]; radiation at LD50 (number of colonies reduced to 50% by radiation alone), FIG. 14A) | apoptotic effect of concurrent application with radiation (human lung cancer cells [10]) | apoptotic rate, concurrent treatment vs radiation or C8PS alone (human lung cancer cells [11]; FIG. 19) | increase of apoptotic rate, concurrent treatment vs radiation or C8PS alone (human lung cancer cells [11]; as a function of time, FIG. 21)
1 | CCCCCCCCCCCCCC[C@@H](O)[C@@H](O)[C@H](CO)NC(=O)CCC [C4PS, N-butanoyl phytosphingosine] | ~100% | slowly increased | showed little changes | significant reduction in tumor size | excellent | excellent | – | – | – | – | – | – | – | – | – | – | – | – | –
2 | CCCCCCCCCCCCCC[C@@H](O)[C@@H](O)[C@H](CO)NC(=O)CCCCC [C6PS, N-hexanoyl phytosphingosine] | ~100% | slowly increased | showed little changes | significant reduction in tumor size | excellent | excellent | 1.6 | 2.40 | 2.67 | – | – | – | – | – | – | – | – | – | –
3 | CCCCCCCCCCCCCC[C@@H](O)[C@@H](O)[C@H](CO)NC(=O)CCCCCCC [C8PS, N-octanoyl phytosphingosine] | – | – | – | – | – | – | 2 | – | – | significantly reduced | maintained or reduced | showed little changed | remarkably increased | excellent radiosensitivity | ≥ 20% | about 30% | excellent apoptotic effect | higher apoptotic rate | ≥ 20%
4 | CCCCCCCCCCCCC/C=C/[C@@H](O)[C@@H](N)CO [sphingosine] | – | – | – | – | – | – | 1.10 | – | – | – | – | – | – | – | – | – | – | – | –
